# In patent US10507208B2, “Compositions, packaged pharmaceuticals, and methods of using hedgehog pathway modulators for the sensitization of resistant tumors” (priority 2015, dated 2019):
# Experiments:
# Assay type in all cases: cell-based
# [1] = tested on: H295 (adrenal cortical carcinoma) cells; experiment: MTT assay, sensitization to vincristine or docetaxel in H295 cells; settings: vincristine or docetaxel plus sensitizer at 10, 1 or 0.1 micromolar, versus chemotherapy alone, FIGS. 10A-10H
# Experimental: (§1) Cancer cells grown in vitro are treated with chemotherapy drugs alone or simultaneously with a hedgehog pathway modulator, including itraconazole. The difference in cell death between cells treated with chemotherapy drugs alone or in simultaneous treatment with the hedgehog pathway modulators determines the degree of synergistic killing effect of the combination therapy.
# (§2) Cell culture: The H295 cell line was grown in DMEM (Dulbecco's Modified Eagles Medium), supplemented with insulin, transferring, and selenium, 10% Fetal bovine serum, and gentamicin. The Kelly cell line was grown in DMEM, supplemented with 10% Fetal bovine serum, and gentamicin. Cell-based experiments were conducted in a 37 degree incubator supplemented with 5% carbon dioxide.
# (§3) In vitro Pharmacology: H295 cells were plated in a 96-well dish at a density of 10000 cells per well and Kelly cells were plated at a density of 2000 cells per well. After 16 hours, cells were treated with 2-fold dilutions of vincristine (VCR) or docetaxel (DTX).
# (§4) MTT Assay: Drug containing media from all of the dishes were discarded and MTT solution was added at a concentration of 5 micrograms per ml. The dishes were returned to the incubator for 4 hours.
# [2] = tested on: HeLa (cervical cancer) cells; experiment: MTT assay, sensitization to vincristine or docetaxel in HeLa cells; settings: HeLa cells (pre-exposed to chemotherapy, second-line model); sensitizer 10, 1 or 0.1 micromolar; FIGS. 10I-10L
# [3] = tested on: Kelly (neuroblastoma) cells; experiment: MTT assay, sensitization to vincristine or docetaxel in Kelly cells; settings: vincristine or docetaxel plus sensitizer at 10, 1 or 0.1 micromolar, versus chemotherapy alone, FIGS. 10A-10H
# Experimental: as §1, §2, §3, §4
smiles,measurement,setting,value
CC1=C2C[C@H]3[C@@H](CC=C4C[C@@H](O)CC[C@@]43C)[C@@H]2CC[C@]12O[C@@H]1C[C@H](C)CN[C@H]1[C@H]2C [cyclopamine],concentration of chemotherapy necessary to stop proliferation as well as kill half of the amount of cells (IC50),[1],remains less than concentration of chemotherapy alone
same,sensitization to vincristine and docetaxel,[2],did not respond
same,concentration of chemotherapy necessary to stop proliferation as well as kill half of the amount of cells (IC50),[3],remains less than concentration of chemotherapy alone
